From US20250114460A1, “NOVEL PLK1 DEGRADATION INDUCING COMPOUND” (UPPTHERA, INC., priority 2021, published 2025)

Target: T1, PLK1 (Homo sapiens, UniProt P53350)
T1 construct: endogenous in cells; host or cells: HeLa LgBit (Plk1-HiBit KI): HeLa stably expressing LgBit, with a CRISPR/Cas9 knock-in of HiBit at the endogenous PLK1 locus
Experiment: Luciferase assay for PLK1 in HeLa LgBit (Plk1-HiBit KI) cell line
Format: cell-based
Details: 300 nM compound, luminescence after 9 hours
Protocol: 2. Luciferase Assay for PLK1
(1) Preparation and Culture of HeLa LgBit (Plk1-HiBit KI) Cell Line
A HeLa cell line in which the LgBit vector was transfected and expressed stably was prepared. Then, after constructing gRNA and donor to express the HiBit amino acid sequence behind the C-terminal of the Plk1 gene, which was inherent in the cell, it was inserted into the cell together with a vector capable of expressing CRISPR/Cas9. Only the cells in which the insertion was completed and knock-in had progressed were selected, sub-cultured and used.
(2) Treatment of Compounds of the Present Invention and Method of Luciferase Assay
In the case of HeLa LgBit (Plk1-HiBit KI), the compounds were treated after being released after thymidine block, and the process was as follows. Thymidine (Sigma-Aldrich Cat. No. T9250-5G) was completely dissolved in DW and used in the experiment. For thymidine block, the products were treated with 2 mM of thymidine and then incubated for 24 hours. For release and chemical treatment, the medium was suctioned and washed with 1×PBS. TrypLE™ was added and incubated in 37° C. CO2 incubator for 5 min. Cells neutralized by adding complete media were counted through a counter. For each well of a 96-well culture plate (SPL), 3.3×10^4 cells and a total medium volume of 150 μL were seeded and incubated in a CO2 incubator.
Each cell line was incubated in a CO2 incubator for 18 hours, and Endurazine was added to each well to make up 4% of the total volume. After adding the compound of the present invention in a 96-well white plate (SPL) to a concentration of 300 nM, the wavelength of the plate reader (BMG Labtech, CLARIOstar Plus) was set to […], and then the luminescence was tracked in real time.
In Table 2, Activity represents the ratio of the luminescense value of each Exemplary Compound treatment group to DMSO treatment group (+++: <0.3, ++<0.6, +<0.7).

T1 sequence (P53350 whole entry): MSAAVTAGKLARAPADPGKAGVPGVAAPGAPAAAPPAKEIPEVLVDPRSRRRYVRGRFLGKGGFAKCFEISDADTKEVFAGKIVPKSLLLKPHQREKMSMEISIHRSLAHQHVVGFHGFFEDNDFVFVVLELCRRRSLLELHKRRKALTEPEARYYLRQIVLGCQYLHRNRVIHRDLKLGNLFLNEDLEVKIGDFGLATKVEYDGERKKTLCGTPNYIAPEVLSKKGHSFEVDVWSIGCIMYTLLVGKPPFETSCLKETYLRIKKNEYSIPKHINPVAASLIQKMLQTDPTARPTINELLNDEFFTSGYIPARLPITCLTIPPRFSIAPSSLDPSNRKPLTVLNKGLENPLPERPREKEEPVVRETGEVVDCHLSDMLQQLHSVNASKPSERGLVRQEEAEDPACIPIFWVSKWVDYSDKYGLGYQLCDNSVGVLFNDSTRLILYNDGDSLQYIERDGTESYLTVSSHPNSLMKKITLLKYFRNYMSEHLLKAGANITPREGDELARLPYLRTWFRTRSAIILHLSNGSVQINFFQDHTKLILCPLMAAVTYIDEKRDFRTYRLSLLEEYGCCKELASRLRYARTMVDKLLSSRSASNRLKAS

Compound	Activity: ratio of the luminescense value of each Exemplary Compound treatment group to DMSO treatment group
C=CC[C@H]1CN(C2CCCC2)c2nc(Nc3ccc(C(=O)NC4CCN(C(=O)CCN5CCN(c6cccc7c6C(=O)N(C6CCC(=O)NC6=O)C7=O)CC5)CC4)cc3OC)ncc2N(C)C1=O (single isomer, unassigned) [Compound 70, 4-((7-allyl-9-cyclopentyl-5-methyl-6-oxo-6,7,8,9-tetrahydro-5H-pyrimido[4,5-b][1, 4]diazepin-2-yl)amino)-N-(1-(3-(4-(2-(2,6-dioxopiperidin-3-yl)-1,3-dioxoisoindolin-4-yl)piperazin-1-yl)propanoyl)piperidin-4-yl)-3-methoxybenzamide]	++ (++<0.6)
C=C[C@]1(F)CN(C2CCCC2)c2nc(Nc3ccc(C(=O)NC4CCN(C(=O)CCN5CCN(c6cccc7c6C(=O)N(C6CCC(=O)NC6=O)C7=O)CC5)CC4)cc3OC)ncc2N(C)C1=O (single isomer, unassigned) [Compound 109]	+ (+<0.7)
COc1cc(C(=O)NC2CCN(CCNc3cccc4c3C(=O)N(C3CCC(=O)NC3=O)C4=O)CC2)c(F)cc1Nc1ncc2c(n1)N(C1CCCC1)CC(F)(F)C(=O)N2C (stereo not drawn) [Compound 1, 4-((9-cyclopentyl-7,7-difluoro-5-methyl-6-oxo-6,7,8,9-tetrahydro-5H-pyrimido[4,5-b][1,4]diazepin-2-yl)amino)-N-(1-(2-((2-(2,6-dioxopiperidin-3-yl)-1,3-dioxoisoindolin-4-yl)amino)ethyl)piperidin-4-yl)-2-fluoro-5-methoxybenzamide]	++ (++<0.6)
COc1cc(C(=O)NC2CCN(CCOc3ccc4c(c3)C(=O)N(C3CCC(=O)NC3=O)C4=O)CC2)c(F)cc1Nc1ncc2c(n1)N(C1CCCC1)CC(F)(F)C(=O)N2C (stereo not drawn) [Compound 3, 4-((9-cyclopentyl-7,7-difluoro-5-methyl-6-oxo-6,7,8,9-tetrahydro-5H-pyrimido[4,5-b][1,4]diazepin-2-yl)amino)-N-(1-(2-((2-(2,6-dioxopiperidin-3-yl)-1,3-dioxoisoindolin-5-yl)oxy)ethyl)piperidin-4-yl)-2-fluoro-5-methoxybenzamide]	++ (++<0.6)
COc1cc(C(=O)NC2CCN(CCSc3cccc4c3C(=O)N(C3CCC(=O)NC3=O)C4=O)CC2)c(F)cc1Nc1ncc2c(n1)N(C1CCCC1)CC(F)(F)C(=O)N2C (stereo not drawn) [Compound 11, 4-((9-cyclopentyl-7,7-difluoro-5-methyl-6-oxo-6,7,8,9-tetrahydro-5H-pyrimido[4,5-b][1,4]diazepin-2-yl)amino)-N-(1-(2-((2-(2,6-dioxopiperidin-3-yl)-1,3-dioxoisoindolin-4-yl)thio)ethyl)piperidin-4-yl)-2-fluoro-5-methoxybenzamide]	++ (++<0.6)
COc1cc(C(=O)NC2CCN(CCCc3cccc4c3C(=O)N(C3CCC(=O)NC3=O)C4=O)CC2)ccc1Nc1ncc2c(n1)N(C1CCCC1)CC(F)(F)C(=O)N2C (stereo not drawn) [Compound 14, 4-((9-cyclopentyl-7,7-difluoro-5-methyl-6-oxo-6,7,8,9-tetrahydro-5H-pyrimido[4,5-b][1,4]diazepin-2-yl)amino)-N-(1-(3-(2-(2,6-dioxopiperidin-3-yl)-1,3-dioxoisoindolin-4-yl)propyl)piperidin-4-yl)-3-methoxybenzamide]	++ (++<0.6)
COc1cc(C(=O)N[C@H]2CC[C@@H](N(C)CCCNc3cccc4c3C(=O)N(C3CCC(=O)NC3=O)C4=O)CC2)ccc1Nc1ncc2c(n1)N(C1CCCC1)CC(F)(F)C(=O)N2C (stereo partly drawn) [Compound 16, 4-((9-cyclopentyl-7,7-difluoro-5-methyl-6-oxo-6,7,8,9-tetrahydro-5H-pyrimido[4,5-b][1,4]diazepin-2-yl)amino)-N-((1s,4s)-4-((3-((2-(2,6-dioxopiperidin-3-yl)-1,3-dioxoisoindolin-4-yl)amino)propyl)(methyl)amino)cyclohexyl)-3-methoxybenzamide]	+ (+<0.7)
COc1cc(C(=O)NC2CCN(CCOCCOCCOCCOCCOCCOCCNc3cccc4c3C(=O)N(C3CCC(=O)NC3=O)C4=O)CC2)c(F)cc1Nc1ncc2c(n1)N(C1CCCC1)CC(F)(F)C(=O)N2C (stereo not drawn) [Compound 17, 4-((9-cyclopentyl-7,7-difluoro-5-methyl-6-oxo-6,7,8,9-tetrahydro-5H-pyrimido[4,5-b][1,4]diazepin-2-yl)amino)-N-(1-(20-((2-(2,6-dioxopiperidin-3-yl)-1,3-dioxoisoindolin-4-yl)amino)-3,6,9,12,15,18-hexaoxaicosyl)piperidin-4-yl)-2-fluoro-5-methoxybenzamide]	++ (++<0.6)
COc1cc(C(=O)NC2CCN(Cc3ccc(COc4ccc5c(c4)CN([C@H]4CCC(=O)NC4=O)C5=O)cc3)CC2)ccc1Nc1ncc2c(n1)N(C1CCCC1)CC(F)(F)C(=O)N2C [Compound 22, (S)-4-((9-cyclopentyl-7,7-difluoro-5-methyl-6-oxo-6,7,8,9-tetrahydro-5H-pyrimido[4,5-b][1,4]diazepin-2-yl)amino)-N-(1-(4-(((2-(2,6-dioxopiperidin-3-yl)-1-oxoisoindolin-5-yl)oxy)methyl)benzyl)piperidin-4-yl)-3-methoxybenzamide]	+ (+<0.7)
COc1cc(C(=O)NC2CCN(C(=O)CCNc3cccc4c3C(=O)N(C3CCC(=O)NC3=O)C4=O)CC2)c(F)cc1Nc1ncc2c(n1)N(C1CCCC1)CC(F)(F)C(=O)N2C (stereo not drawn) [Compound 24, 4-((9-cyclopentyl-7,7-difluoro-5-methyl-6-oxo-6,7,8,9-tetrahydro-5H-pyrimido[4,5-b][1,4]diazepin-2-yl)amino)-N-(1-(3-((2-(2,6-dioxopiperidin-3-yl)-1,3-dioxoisoindolin-4-yl)amino)propanoyl)piperidin-4-yl)-2-fluoro-5-methoxybenzamide]	+ (+<0.7)
CN1C(=O)C(F)(F)CN(C2CCCC2)c2nc(Nc3ccc(C(=O)NC4CCN(C(=O)CCCNc5cccc6c5C(=O)N(C5CCC(=O)NC5=O)C6=O)CC4)cc3F)ncc21 (stereo not drawn) [Compound 27, 4-((9-cyclopentyl-7,7-difluoro-5-methyl-6-oxo-6,7,8,9-tetrahydro-5H-pyrimido[4,5-b][1,4]diazepin-2-yl)amino)-N-(1-(4-((2-(2,6-dioxopiperidin-3-yl)-1,3-dioxoisoindolin-4-yl)amino)butanoyl)piperidin-4-yl)-3-fluorobenzamide]	++ (++<0.6)
COc1cc(C(=O)NC2CCN(C(=O)CCCNc3ccc4c(c3)C(=O)N(C3CCC(=O)NC3=O)C4=O)CC2)c(F)cc1Nc1ncc2c(n1)N(C1CCCC1)CC(F)(F)C(=O)N2C (stereo not drawn) [Compound 35, 4-((9-cyclopentyl-7,7-difluoro-5-methyl-6-oxo-6,7,8,9-tetrahydro-5H-pyrimido[4,5-b][1,4]diazepin-2-yl)amino)-N-(1-(4-((2-(2,6-dioxopiperidin-3-yl)-1,3-dioxoisoindolin-5-yl)amino)butanoyl)piperidin-4-yl)-2-fluoro-5-methoxybenzamide]	+ (+<0.7)
